Results reported in patent US20040087480A1, “Calcium channel target for controlling epidermal keratinocyte growth in psoriasis, and basal and squamous cell carcinomas” (Fujisawa Pharmaceutical Co. Ltd., priority 2002, published 2004).
Several values for one entry are separate records, joined by “and”; a condition that tells them apart may be missing. Identical values can stand only once.

Columns and labels:
[1] = tested on: hECaC2; settings: Caco-2 cells; Wood et al, 2001; cited from earlier work
[2] = tested on: hECaC2; experiment: Quantitative PCR of hECaC2 mRNA in cultured human skin biopsies (explant culture); assay type: cell-based; settings: 1 μM VitD in culture medium (1.4 mM calcium), versus untreated biopsies cultured the same number of days
Method: Skin biopsies were taken from healthy donors and cultured for the indicated times with 1 μM VitD or with vehicle added to the culture medium. mRNA levels for hECaC2 were measured by quantitative PCR, normalized to GAPDH, and fold changes in expression were calculated relative to vehicle treated controls. Results are mean±SEM from two experiments.
The effect of VitD on hECaC2 expression in skin explants over time in culture was next examined, but the dynamics of gene expression in this system had to first be defined. All experiments with explant, cultured skin biopsies were performed in medium containing 1.4 mM calcium, a requirement for long-term viability (Varani et al, 1993 Am J Pathol 142:189-198). Biopsies placed in RNALater at time of collection were used to define expression levels of these genes at “−1” days in culture. Biopsies for which RNA was extracted immediately upon arrival in the lab (after overnight shipping from the source) were designated as “0” days in culture. Data for days 1 and 3 are from biopsies which were then cultured in the lab. All biopsies for an experiment were from the same donor.

[3] = tested on: murine ECaC1 or 2; settings: including in skin; Weber et al, 2001; cited from earlier work
[4] = tested on: hECaC1; experiment: Quantitative PCR of hECaC1 expression in cultured human keratinocytes; assay type: cell-based; settings: up to 3 days treatment with 2 mM calcium or 1 μM VitD
Excerpt: (§1) There is currently no published data on expression of either hECaC1 or hECaC2 in either primary human keratinocytes or human skin, although murine ECaC2 expression has been reported for mouse skin (Weber et al, 2001 Biochem Biophys Res Commun 289:1287-1294). Therefore, the inventors investigated if keratinocytes expressed either or both ECaC channels, and whether expression of these channels was correlated with cell differentiation stimulated by either calcium or VitD. […] However, hECaC2 expression was readily detected in these same cultures. At 1 and 3 days of culture hECaC2 expression levels were 0.014±0.002% and 0.005±0.0005% of GAPDH (N=3). […] Therefore, the observed absence of hECaC1 expression in keratinocytes was indeed due to the mRNA for this gene being at levels so low that they were undetectable.
(§2) The effects of elevated calcium or VitD on expression of hECaC1 or 2 in cultured keratinocytes were investigated. […] After 1 day in 2 mM calcium there was a small but consistent decrease in hECaC2 expression, which averaged approximately 85% of the untreated control.

[5] = tested on: hECaC2; experiment: Quantitative TaqMan PCR of hECaC2 mRNA (normalized to GAPDH) in cultured human epidermal keratinocytes; assay type: cell-based; settings: for increase in hECaC2 expression: 2 mM calcium and/or 1 μM VitD, relative to untreated, time-matched cultures
Method: Quantitative, TaqMan-based PCR was used to assess changes in mRNA levels for hECaC2 (normalized to GAPDH) from keratinocyte cultures grown in 2 mM calcium or 1 μM VitD over 1 and 3 days. mRNA levels are expressed as fold-changes versus levels measured in sibling cultures grown for 1 and 3 days in basal calcium (0.06 mM) and no VitD. VitD caused greater increases in hECaC2 expression than did calcium. […] Note differences in scaling of y-axes. All increases are significant from control with the exception of calcium at 1 day. Results are mean-±SEM from three experiments.
as §1, §2

[6] = tested on: hECaC1; settings: 1 μM VitD, cultured skin biopsies
Method: The effect of VitD on gene expression in cultured biopsies was assessed by comparing mRNA levels in the treated biopsies to levels in untreated biopsies cultured for the same number of days (FIG. 4).

Molecule	hECaC2 expression response to VitD [1]	increase in hECaC2 expression ([2]; 1 day)	increase in hECaC2 expression ([2]; 3 days)	murine ECaC1 or 2 expression response to VitD [3]	hECaC1 expression [4]	increase in hECaC2 expression ([5]; 1 day treatment)	increase in hECaC2 expression ([5]; 3 days treatment)	hECaC1 expression in response to VitD [6]	hECaC2 expression, % of the untreated control ([5]; 1 day in 2 mM calcium)
Vitamin D [VitD]	upregulated	3.6 fold	7.8 fold	unresponsive	not detected	63 fold and 60 fold	51 fold	nor was expression induced	
[Ca+2] [calcium]					not detected		approximately 3.8 fold		approximately 85%
